In ChEMBL document CHEMBL2086377, “Synthesis and functionalization of cyclic sulfonimidamides: a novel chiral heterocyclic carboxylic Acid bioisostere” (ACS Med Chem Lett, 2012):

What was measured:
[1] = Apparent permeability of the compound from apical to basal side of human Caco2 cells at 1 uM after 60 mins by LCMS analysis; assay type: ADME, cell-based; conditions: Caco-2
[2] = Octanol-buffer partition coefficient, log D of the compound after 30 mins by shake flask method at pH 7.4
in vitro = conditions: human, Caco-2
Description: Efflux ratio of apparent permeability of the compound from basal to apical to apical to basal side of human Caco2 cells at 1 uM after 60 mins by LCMS analysis

[3] = Dissociation constant, pKa of the compound at 10 mM by pressure-assisted capillary electrophoretic/mass spectrometric analysis; assay type: physicochemical

Structure (SMILES) | Papp A→B at 1 h, 1 µM [1] [×10⁻⁶ cm/s] | logD at 0.5 h [2] | efflux ratio at 1 h, 1 µM (in vitro) | pKa at 10000 µM [3]
N#Cc1cccc(-c2cccc(-c3nn[nH]n3)c2)c1 | < 0.3 | 0.7 | 255 | 4
Cc1ccc(-c2cccc(-c3nn[nH]n3)c2)cc1 | – | 1.3 | – | 4.1
C[C@@H]1N[S@](=O)(c2cccc(-c3cccc(C#N)c3)c2)=NC1=O | 2.3 | – | – | 5.8
N#Cc1cccc(-c2cccc(C(=O)O)c2)c1 | – | 0.3 | – | –
Cc1ccc(-c2cccc(C(=O)O)c2)cc1 | – | – | – | 4
Cc1ccc(-c2cccc([S@]3(=O)=NC(=O)[C@H](C)N3)c2)cc1 | 66 | – | – | 6
